The values that follow come from US20050070511A1, “2-methylene-19-nor-vitamin D2 compounds” (Wisconsin Alumni Research Foundation, priority 2003, published 2005).

The test system of experiment [1] is Male, weanling Sprague-Dawley rats. Put plainly: Serum calcium (bone calcium mobilization) in vitamin D-deficient rats. Conditions: for Mobilization of calcium from bone compared with 1α,25-dihydroxyvitamin D3: FIG. 4, in words; for Serum Calcium (bone calcium mobilization): rats on low Ca diet, i.p. daily, average ± SE from 5 animals. The experiment is classed as in vivo, rat. How it is done:
(§1) Male, weanling Sprague-Dawley rats were placed on Diet 11 (0.47% Ca)+AEK for 11 days, followed by Diet 11 (0.02% Ca)+AEK for 31 days. Dosing (i.p.) began 7 days prior to sacrifice. Doses were given on a daily basis, 24 hours apart. The first 10 cm of the intestine was collected for gut transport studies and serum was collected for bone Ca mobilization analysis. The results are reported in TABLE 1 and illustrated in the graph of FIGS. 3 and 4.
The in vivo tests of serum calcium of rats on a zero calcium diet provides an insight into […] or bone activity of the 2-methylene-24(S) and 24(R) derivatives of 19-nor-1α,25-dihydroxyvitamin D2. […] At the same time, the activity of the 2-methylene-24(S) and 24(R) derivatives of 19-nor-1α,25-dihydroxyvitamin D2 on intestinal calcium transport is approximately equal to that of 1,25-(OH)2D3 (FIG. 3).

Experiment [2] has as its target T1, vitamin D pig intestinal nuclear receptor (Sus scrofa, UniProt A3RGC1).
T1 construct: the vitamin D pig intestinal nuclear receptor; from tissue; host or cells: pig intestine (nuclear receptor preparation)
T1 sequence (A3RGC1 1-427): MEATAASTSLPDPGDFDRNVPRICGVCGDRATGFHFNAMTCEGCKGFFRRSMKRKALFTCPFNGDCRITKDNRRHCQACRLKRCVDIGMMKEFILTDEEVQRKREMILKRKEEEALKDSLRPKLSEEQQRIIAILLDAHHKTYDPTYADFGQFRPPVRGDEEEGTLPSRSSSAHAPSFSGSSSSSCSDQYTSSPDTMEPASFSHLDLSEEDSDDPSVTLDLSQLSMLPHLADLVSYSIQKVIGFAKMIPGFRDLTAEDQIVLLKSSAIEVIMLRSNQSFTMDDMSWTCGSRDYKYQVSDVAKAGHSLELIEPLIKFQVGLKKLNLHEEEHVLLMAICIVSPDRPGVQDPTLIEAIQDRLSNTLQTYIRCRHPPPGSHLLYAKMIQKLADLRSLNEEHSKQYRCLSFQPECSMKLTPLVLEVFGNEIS
As to the kind of experiment: Competitive binding of [3H]-1α,25-(OH)2-D3 to the porcine intestinal vitamin D receptor. Conditions: FIG. 1, in words. How it is done: FIG. 1 is a graph illustrating the relative activity of 2-methylene-19-nor-24(S)-20(R)-1α,25-dihydroxyvitamin D2, 2-methylene-19-nor-24(R)-20(R)-1α,25-dihydroxyvitamin D2 and 1α,25-dihydroxyvitamin D3 to compete for binding of [^3H]-1α,25-(OH)2-D3 to the vitamin D pig intestinal nuclear receptor.
Competitive binding of the analogs to the porcine intestinal receptor was carried out by the method described by Dame et al. (Biochemistry 25, 4523-4534, 1986).

For another experiment, the system named is HL-60 cells. As to the kind of experiment: Differentiation of HL-60 promyelocytes into monocytes. The experiment is classed as cell-based. To be noted: FIG. 2, in words. How it is done: FIG. 2 is a graph illustrating the percent HL-60 cell differentiation as a function of the concentration of 2-methylene-19-nor-24(S)-20(R)-1α,25-dihydroxyvitamin D2, 2-methylene-19-nor-24(R)-20(R)-1α,25-dihydroxyvitamin D2, and 1α,25-dihydroxyvitamin D3.
The differentiation of HL-60 promyelocytic into monocytes was determined as described by Ostrem et al. (J. Biol. Chem. 262, 14164-14171, 1987).

The test system of experiment [3] is Male, weanling Sprague-Dawley rats. Put plainly: Intestinal calcium transport in vitamin D-deficient rats. The experiment is classed as in vivo, rat. To be noted: for Activity in stimulating intestinal calcium transport compared with 1α,25-dihydroxyvitamin D3: FIG. 3, in words; for Intestinal Calcium Transport (S/M): rats on low Ca diet, i.p. daily, average ± SE from 5 animals. How it is done:
as §1

In the case of `C=C1[C@H](O)CC(=C/C=C2\CCC[C@@]3(C)C2CCC3[C@H](C)/C=C/[C@H](C)C(C)(C)O)C[C@H]1O` (stereo partly drawn) [(20R,24S)D2, (20R,24S)-1α,25-dihydroxy-2-methylene-19-nor-vitamin D2], in experiment [1], the “Mobilization of calcium from bone compared with 1α,25-dihydroxyvitamin D3” value was “minimal activity on bone”. In addition, the results for the “Serum Calcium (bone calcium mobilization)” value (shortened to “Serum Calcium”) in experiment [1] (130 pmol/day/7 days) and in experiment [1] (260 pmol/day/7 days) were 4.7 ± 0.13 mg/100 mL and 5.04 ± 0.14 mg/100 mL, respectively. In experiment [2], the “Binding to the vitamin D receptor compared with 1,25(OH)2D3” value is “more active than 1,25(OH)2D3”. In the experiment on HL-60 cells, the “HL-60 differentiation potency compared with 1,25(OH)2D3” value is recorded as “significantly more potent than 1,25(OH)2D3”. Moreover, the “Activity in stimulating intestinal calcium transport compared with 1α,25-dihydroxyvitamin D3” value in experiment [3] is on record as “activity about the same as that of 1α,25-dihydroxyvitamin D3”. In addition, the “Intestinal Calcium Transport (S/M)” value in experiment [3] (130 pmol/day/7 days) is given as 11.62 ± 0.69 S/M; in experiment [3] (260 pmol/day/7 days), 11.14 ± 0.74 S/M.
Regarding `C=C1[C@H](O)CC(=C/C=C2\CCC[C@@]3(C)C2CCC3[C@H](C)/C=C/[C@@H](C)C(C)(C)O)C[C@H]1O` (stereo partly drawn) [(20R,24R)D2, (20R,24R)-1α,25-dihydroxy-2-methylene-19-nor-vitamin D2], the “Mobilization of calcium from bone compared with 1α,25-dihydroxyvitamin D3” value in experiment [1] is “minimal activity on bone”. Moreover, the “Serum Calcium” value in experiment [1] (130 pmol/day/7 days) came to 4.5 ± 0.05 mg/100 mL; in experiment [1] (260 pmol/day/7 days), 5.02 ± 0.14 mg/100 mL. For the same compound, the “Binding to the vitamin D receptor compared with 1,25(OH)2D3” value in experiment [2] is reported as “more active than 1,25(OH)2D3”. In the experiment on HL-60 cells, the “HL-60 differentiation potency compared with 1,25(OH)2D3” value is recorded as “significantly more potent than 1,25(OH)2D3”. For the same compound, the “Activity in stimulating intestinal calcium transport compared with 1α,25-dihydroxyvitamin D3” value in experiment [3] is “activity about the same as that of 1α,25-dihydroxyvitamin D3”. Moreover, the “Intestinal Calcium Transport (S/M)” value in experiment [3] (130 pmol/day/7 days) was determined as 12.2 ± 1.22 S/M; in experiment [3] (260 pmol/day/7 days), 11.58 ± 0.66 S/M.
For the compound `C=C1/C(=C\C=C2/CCC[C@]3(C)[C@@H]([C@H](C)CCCC(C)(C)O)CC[C@@H]23)C[C@@H](O)C[C@@H]1O` [1,25-(OH)2D3, 1α,25-dihydroxyvitamin D3, reference compound], the “Serum Calcium” value in experiment [1] (260 pmol/day/7 days) stood at 5.72 ± 0.14 mg/100 mL. For the same compound, the “Intestinal Calcium Transport (S/M)” value in experiment [3] (260 pmol/day/7 days) was determined as 12.54 ± 1.83 S/M.
